Source: patent US12012404B2, “Pyrimidoheterocyclic compounds and application thereof” (D3 BIO (WUXI) CO., LTD., priority 2020, dated 2024)
Where a name gives a salt, the structure may show the parent alone.

What was measured:
[1] = test system: KRAS^G12C-mutated H358 cells; assay: H358 cell assay: inhibition of proliferation (CellTiter-Glo, 5 days); format: cell-based; details: NCI-H358 cells, 5 days incubation
Description: Compounds were assayed for IC50 of inhibition of proliferation of KRAS^G12C-mutated H358 cells.
The main instrument used in this assay was a Nivo multi-label analyzer (PerkinElmer).
2.4 Method of the Assay: • 1) NCI-H358 cells were inoculated in a white 96-well plate, and each well contained 80 μL of cell suspension and 4000 NCI-H358 cells. […] The assay was carried out in duplicate. 78 μL of medium was added to the intermediate plate, and then 2 μL of the serially diluted compound was transferred to each well of the intermediate plate according to the corresponding position. After mixing well, 20 μL per well was transferred to the cell plate. […] The cell plate was incubated in a carbon dioxide incubator for 5 days. Another cell plate was prepared, and the signal value of the cell plate was read on the day of compound addition as the maximum value (Max value in the equation below) to participate in data analysis. 25 μL of cell viability chemiluminescence detection reagent was added to each well of the cell plate, and the plate was incubated at room temperature for 10 minutes to stabilize the luminescence signal. A multi-label analyzer was used for reading the plate. • 3) […]

[2] = test system: KRAS^G12C-mutated MIA-PA-CA-2 cells; assay: Inhibition of proliferation of KRAS^G12C-mutated MIA-PA-CA-2 cells (CellTiter-Glo, 72 h); format: cell-based, human
Description: Compounds were assayed for IC50 of inhibition of proliferation of KRAS^G12C-mutated MIA-PA-CA-2 cells.
The main reagent used in this assay included CellTiter-Glo (Promega, Cat. No. G7573).
The main instrument used in this assay was PerkinElmer EnVision multi-function microplate reader.
1.4 Method of the Assay • 1) Adherent cells were digested with trypsin to form a cell suspension, and the cell suspension was counted for later use. • 2) An appropriate amount of cells was added into a centrifuge tube, and a cell culture medium was added to make up the required volume; then the cells were plated to a 96-well plate at a final density of 2000 cells/well, 100 μL of culture medium. • 3) After incubating for 24 hr, the compound was formulated to 10 mM with DMSO, and serially diluted 3-fold with DPBS (Dulbecco's Phosphate Buffered Saline) to 9 points; 10 μL was added to each well in duplicate. 10 μL of DPBS per well was added to the assay control wells (Con). • 4) On the same day, 50 μL of CellTiter Glo was added to another cell culture plate without compounds, and the fluorescence value was read by EnVision. […] The fluorescence value was read by EnVision. • 6) Data analysis: The inhibition rate of cells in each well was calculated according to the following equation: […]

IC50 ([1]; Homo sapiens, 120 h) [nM]	IC50 [1] [nM]	IC50 ([2]; Homo sapiens, MIA PaCa-2, 72 h incubation) [nM]	Compound	IC50 ([2]; 72 h incubation) [nM]
9.2	–	–	C=CC(=O)N1CCN(c2nc(OC[C@@H]3CCCN3C)nc3c2COC(c2c(F)c(N)cc(C)c2C(F)(F)F)C3)C[C@H]1C (some centres unmarked) [Compound 15]	–
–	< 4.6	–	C=CC(=O)N1CCN(c2nc(OCC3CCCN3C)nc3c2CN(C)C(c2c(Cl)c(C)cc4[nH]ncc24)C3)CC1CC#N (single isomer, unassigned) [Compound 6A]	–
–	19	–	C=CC(=O)N1CCN(c2nc(OC[C@@H]3CCCN3C)nc3c2COC(c2cccc4cccc(Cl)c24)C3)C[C@@H]1CC#N (some centres unmarked) [Compound 2]	–
–	68.2	–	C=CC(=O)N1CCN(c2nc(OC[C@@H]3CCCN3C)nc3c2CN(C)C(c2cccc4ccccc24)C3)C[C@@H]1CC#N (some centres unmarked) [Compound 1]	5.21
32.6	–	–	C=CC(=O)N1CCN(c2nc(OC[C@@H]3CCCN3C)nc3c2COC(c2c(F)c(N)cc(C)c2C(F)(F)F)C3)[C@H](C)C1 (some centres unmarked) [Compound 13]	–
–	< 4.6	–	C=C(F)C(=O)N1CCN(c2nc(OCC3CCCN3C)nc3c2COC(c2c(F)c(N)cc(C)c2C(F)(F)F)C3)CC1CC#N (single isomer, unassigned) [8B hydrochloride]	2.7
–	12.9	–	C=CC(=O)N1CCN(c2nc(OCC3CCCN3C)nc3c2COC(c2c(Cl)c(C)cc4[nH]ncc24)C3)CC1CC#N (single isomer, unassigned) [Compound 5B]	–
–	27	–	C=CC(=O)N1CCN(c2nc(OCC3CCCN3C)nc3c2CNC(c2c(Cl)c(C)cc4[nH]ncc24)C3)CC1CC#N (single isomer, unassigned) [4B hydrochloride]	–
70	–	–	C=CC(=O)N1CCN(c2nc(OC[C@@H]3CCCN3C)nc3c2COC(c2c(F)c(N)cc(C)c2C(F)(F)F)C3)C[C@@H]1C (some centres unmarked) [Compound 10]	–
1.7	–	2.22	C=C(F)C(=O)N1CCN(c2nc(OCC34CCCN3CCC4)nc3c2COC(c2c(F)c(N)cc(C)c2C(F)(F)F)C3)C[C@@H]1CC#N (some centres unmarked) [Compound 16]	–

Compound	IC50 ([1]; Homo sapiens, 120 h) [nM]	IC50 [1] [nM]	IC50 ([2]; Homo sapiens, MIA PaCa-2, 72 h incubation) [nM]	IC50 ([2]; 72 h incubation) [nM]
C=CC(=O)N1CCN(c2nc(OCC34CCCN3CCC4)nc3c2COC(c2c(F)c(N)cc(C)c2C(F)(F)F)C3)C(C)C1 (centres unmarked) [Compound 12]	–	2.5	–	1.3
C=CC(=O)N1C[C@H](C)N(c2nc(OC[C@@H]3CCCN3C)nc3c2COC(c2c(F)c(N)cc(C)c2C(F)(F)F)C3)C[C@H]1C (some centres unmarked) [Compound 11]	–	6.7	–	–
C=CC(=O)N1CCN(c2nc(OCC3CCCN3C)nc3c2COC(c2c(F)c(N)cc(C)c2C(F)(F)F)C3)C(C)C1 (single isomer, unassigned) [Compound 18B]	–	4.7	–	3.29
C=CC(=O)N1CCN(c2nc(OCC3CC(F)CN3C)nc3c2COC(c2c(F)c(N)cc(C)c2C(F)(F)F)C3)C(C)C1 (single isomer, unassigned) [Compound 9B]	–	5.5	–	6.98
